Data from patent US9169254B2, “Spiroimidazolone derivative” (Chugai Seiyaku Kabushiki Kaisha, priority 2009, dated 2015).

target: T1, human PTH1 receptor (Homo sapiens, UniProt Q03431); assay: In vitro cAMP signal activity in HKRK-B7 cells (LLC-PK1 cells overexpressing the human PTH1 receptor); format: cell-based; details: HKRK-B7 cells; compound at 1×10^−3 M; cAMP produced as percentage of that produced by hPTH(1-34) at 100 nM
T1 sequence (Q03431 27-593): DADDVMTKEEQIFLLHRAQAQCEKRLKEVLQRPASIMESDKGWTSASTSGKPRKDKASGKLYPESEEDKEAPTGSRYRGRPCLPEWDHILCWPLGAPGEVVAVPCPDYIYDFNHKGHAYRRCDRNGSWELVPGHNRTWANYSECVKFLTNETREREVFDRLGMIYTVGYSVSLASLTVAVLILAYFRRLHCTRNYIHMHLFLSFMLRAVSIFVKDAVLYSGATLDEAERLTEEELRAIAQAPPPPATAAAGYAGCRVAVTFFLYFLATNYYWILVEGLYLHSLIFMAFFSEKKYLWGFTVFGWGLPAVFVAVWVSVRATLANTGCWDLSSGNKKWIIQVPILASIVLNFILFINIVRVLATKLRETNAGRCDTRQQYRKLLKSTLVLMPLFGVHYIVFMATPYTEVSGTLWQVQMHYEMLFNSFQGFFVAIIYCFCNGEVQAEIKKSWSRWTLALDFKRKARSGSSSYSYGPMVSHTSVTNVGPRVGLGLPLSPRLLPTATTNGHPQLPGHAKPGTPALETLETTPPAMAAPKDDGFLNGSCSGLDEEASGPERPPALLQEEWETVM

Point of comparison: `CCCCCCCCCC1=NC2(CCN(S(=O)(=O)CCc3c(C)cc(C(=O)N4CC(O)C4)cc3C)CC2)C(=O)N1` [Compound 985, 8-{2-[4-(3-hydroxy-azetidine-1-carbonyl)-2,6-dimethyl-phenyl]-ethanesulfonyl}-2-nonyl-1,3,8-triaza-spiro[4.5]dec-1-en-4-one], “cAMP production activity (%)” value 120%. Against it:
- CCCCCCCCCC1=NC2(CCN(S(=O)(=O)CCc3ccc(C(=O)N4CC[C@@H](O)C4)cc3C)CC2)C(=O)N1 [Compound 979, 8-{2-[4-((R)-3-hydroxy-pyrrolidine-1-carbonyl)-2-methyl-phenyl]-ethanesulfonyl}-2-nonyl-1,3,8-triaza-spiro[4.5]dec-1-en-4-one] — higher, 145%
- CCCCCCCCCC1=NC2(CCN(S(=O)(=O)CCc3c(C)cc(C(=O)N4CCCC4)cc3C)CC2)C(=O)N1 [Compound 980, 8-{2-[2,6-Dimethyl-4-(pyrrolidine-1-carbonyl)-phenyl]-ethanesulfonyl}-2-nonyl-1,3,8-triaza-spiro[4.5]dec-1-en-4-one] — lower, 85%
- CCCCCCCCCC1=NC2(CCN(S(=O)(=O)CCc3c(C)cc(C(=O)N4CC[C@@H](O)C4)cc3C)CC2)C(=O)N1 [Compound 981, 8-{2-[4-((R)-3-hydroxy-pyrrolidine-1-carbonyl)-2,6-dimethyl-phenyl]-ethanesulfonyl}-2-nonyl-1,3,8-triaza-spiro[4.5]dec-1-en-4-one] — lower, 106%
- CCCCCCCCCC1=NC2(CCN(S(=O)(=O)CCc3c(C)cc(C(=O)N4CCC4)cc3C)CC2)C(=O)N1 [Compound 982, 8-{2-[4-(azetidine-1-carbonyl)-2,6-dimethyl-phenyl]-ethanesulfonyl}-2-nonyl-1,3,8-triaza-spiro[4.5]dec-1-en-4-one] — lower, 96%
- CCCCCCCCCC1=NC2(CCN(S(=O)(=O)CCc3c(C)cc(C(=O)N4CCCCC4)cc3C)CC2)C(=O)N1 [Compound 983, 8-{2-[2,6-dimethyl-4-(piperidine-1-carbonyl)-phenyl]-ethanesulfonyl}-2-nonyl-1,3,8-triaza-spiro[4.5]dec-1-en-4-one] — lower, 91%
- CCCCCCCCCC1=NC2(CCN(S(=O)(=O)CCc3c(C)cc(C(=O)N4CCC(O)CC4)cc3C)CC2)C(=O)N1 [Compound 984, 8-{2-[4-(4-hydroxy-piperidine-1-carbonyl)-2,6-dimethyl-phenyl]-ethanesulfonyl}-2-nonyl-1,3,8-triaza-spiro[4.5]dec-1-en-4-one] — higher, 133%
- CCCCCCCCCC1=NC2(CCN(S(=O)(=O)CCc3c(C)cc(C(=O)N4CCN(C)CC4)cc3C)CC2)C(=O)N1 [Compound 986, 8-{2-[2,6-dimethyl-4-(4-methyl-piperazine-1-carbonyl)-phenyl]-ethanesulfonyl}-2-nonyl-1,3,8-triaza-spiro[4.5]dec-1-en-4-one] — lower, 96%
- CONC(=O)Cc1ccc(/C=C/S(=O)(=O)N2CCC3(CC2)N=C(C2CCC(C)CC2)NC3=O)c(C)c1 (centres unmarked) [Compound 988, N-methoxy-2-(3-methyl-4-{(E)-2-[2-(4-methyl-cyclohexyl)-4-oxo-1,3,8-triaza-spiro[4.5]dec-1-ene-8-sulfonyl]-vinyl}-phenyl)-acetamide] — lower, 50%
- Cc1cc(C(=O)N2CCC(C)(O)CC2)cc(C)c1/C=C/S(=O)(=O)N1CCC2(CC1)N=C(C1CCC(CCC(F)(F)F)CC1)NC2=O (centres unmarked) [Compound 989, 8-{(E)-2-[4-(4-Hydroxy-4-methyl-piperidine-1-carbonyl)-2,6-dimethyl-phenyl]-ethenesulfonyl}-2-[4-(3,3,3-trifluoro-propyl)-cyclohexyl]-1,3,8-triaza-spiro[4.5]dec-1-en-4-one] — lower, 86%
- Cc1cc(C(=O)N2CCC(O)(CF)CC2)cc(C)c1/C=C/S(=O)(=O)N1CCC2(CC1)N=C(C1CCC(CCC(F)(F)F)CC1)NC2=O (centres unmarked) [Compound 990, 8-{(E)-2-[4-(4-fluoromethyl-4-hydroxy-piperidine-1-carbonyl)-2,6-dimethyl-phenyl]-ethenesulfonyl}-2-[4-(3,3,3-trifluoro-propyl)-cyclohexyl]-1,3,8-triaza-spiro[4.5]dec-1-en-4-one] — lower, 87%
